Data as given in article PMC13198257, “An aerosolized dual-action autotaxin inhibitor-PPARγ agonist for the treatment of pulmonary fibrosis” (Cell Reports Medicine, 2026).

System: lung gene expression
Experiment: RNA sequencing of lung tissue (BLM/EL244 vs BLM)
Type: in vivo, mouse
Details: lung tissue, BLM/EL244 vs BLM
Protocol: RNA quality was assessed using an Agilent TapeStation 4150 with the High Sensitivity […] ScreenTape (Agilent), according to the manufacturer’s protocols. For library preparation, the QuantSeq 3’mRNA-Seq Library Prep Kit (Lexogen) was used according to manufacturer’s instructions. Briefly, 500 ng of RNA from each sample was used for first-strand synthesis, followed by RNA template removal, and second-strand synthesis initiated by random primers. In-line barcodes were introduced at this step, and this was followed by magnetic bead-based purification. The resulting libraries were amplified for 15 cycles and re-purified, with quantity and quality assessed on a Qubit 4 Fluorometer with the Invitrogen Qubit dsDNA HS Assay and an Agilent Tapestation 4150 with the High Sensitivity D1000 assay kit, respectively. The quantified libraries were pooled equimolarly; 50ng of total library mix was used for Adapter Conversion PCR Amplification using the Universal Library Conversion Kit (App-A), Version: V1.0 (MGI Tech Co., Ltd.), according to the manufacturer’s instructions.
The quantity and quality of the purified adapter conversion PCR (AC-PCR) product were evaluated on a Qubit 4 Fluorometer with the Invitrogen Qubit dsDNA HS Assay and on an Agilent Tapestation 4150 with the High Sensitivity D1000 assay kit, respectively. This was followed by DNA denaturation, Single-Strand Circularisation, Enzymatic Digestion, Enzymatic Digestion Product Cleanup and Quality Control steps on 1 pmol of AC-PCR product, according to the Universal Library Conversion Kit (App-A) User Manual (Version: A3).
Finally, 60 fmol of ssCirDNA were used for DNB preparation and sequencing on a DNBSEQ-G400 platform at the BSRC Alexander Fleming Genomics Facility, using a G400 App-A FCS SE100 High-throughput Sequencing Set (MGI Tech Co., Ltd.), according to the manufacturer’s instructions.
Alignment of the FASTQ files was performed against the mouse genome build mm10 using a custom Bash script.[143] Read counting on the 3′ UTRs and differential expression analysis were conducted using the metaseqR2 bioconductor package.[144] Genes corresponding to the following biotypes were excluded: polymorphic_pseudogene, processed_transcript, pseudogene, IG_V_pseudogene, misc_RNA, IG_C_gene, IG_J_gene, IG_D_gene, IG_LV_gene, TR_V_gene, TR_V_pseudogene, TEC, and processed_pseudogene. Gene counts were normalized with DESEQ[145] through metaseqR2. Genes with more than 10 counts in at least 50% of the samples were kept for further processing. For differential expression analysis, the PANDORA algorithm[146] was used to estimate a meta p-value integrating the results from the DESEQ, DESEQ2,[147] edgeR,[148] limma,[149] NBPSeq,[150] and NOISeq[151] algorithms. All additional parameters were set to default values.
Pathway enrichment analysis was performed for the Gene Ontology Biological process (BP) and Molecular Function (MF) terms through GeneCodis 4.[152] The volcano plots, scatterplots, Venn diagrams, and dot plots were generated using the ggplot2 Bioconductor package.

Compound: O=C1NC(=O)C(Cc2ccc(OCCC3CCN(C(=O)OCc4cc(Cl)cc(Cl)c4)CC3)cc2)S1 (centres unmarked) [EL244, 3,5-dichlorobenzyl 4-(2-(4-((2,4-dioxothiazolidin-5-yl)methyl)phenoxy)ethyl)piperidine-1-carboxylate]
- Evi2a nFC: 0.57
- Fam120b log2 nFC: 0.61
- Fam120b nFC: 1.53
- Fbln5 log2 nFC: -0.64
- Fbln5 nFC: 0.64
- Fcer1g log2 nFC: -0.80
- Fcer1g nFC: 0.57
- Flt1 log2 nFC: 0.58
- Flt1 nFC: 1.50
- Fmod log2 nFC: -1.79
- Fmod nFC: 0.29
- Fn1 log2 nFC: -1.69
- Fn1 nFC: 0.31
- Foxm1 log2 nFC: -1.56
- Foxm1 nFC: 0.34
- Gas7 log2 nFC: -0.82
- Gas7 nFC: 0.57
- Gatm log2 nFC: -1.79
- Gatm nFC: 0.29
- Gen1 log2 nFC: -1.63
- Gen1 nFC: 0.32
- Gins2 log2 nFC: -1.57
- Gins2 nFC: 0.34
- Gja4 log2 nFC: -0.81
- Gja4 nFC: 0.57
- Gm9844 log2 nFC: -0.79
- Gm9844 nFC: 0.58
- Gm22774 log2 nFC: -2.05
- Gm22774 nFC: 0.24
- Gm23451 log2 nFC: -1.99
- Gm23451 nFC: 0.25
- Gm49673 log2 nFC: -0.71
- Gm49673 nFC: 0.61
- Gpc1 log2 nFC: -0.80
- Gpc1 nFC: 0.57
- Gtse1 log2 nFC: -1.49
- Gtse1 nFC: 0.36
- Gxylt2 log2 nFC: -1.47
- Gxylt2 nFC: 0.36
- Gyg log2 nFC: -0.60
- Gyg nFC: 0.66
- H2-Aa log2 nFC: -0.68
- H2-Aa nFC: 0.62
- H2-Eb1 log2 nFC: -0.70
- H2-Eb1 nFC: 0.62
- H2-M2 log2 nFC: -1.86
- H2-M2 nFC: 0.27
- H2ac11 log2 nFC: -1.45
- H2ac11 nFC: 0.37
- H2ac12 log2 nFC: -1.44
- H2ac12 nFC: 0.37
- Hc log2 nFC: 0.67
- Hc nFC: 1.59
- Herpud1 log2 nFC: 0.64
- Herpud1 nFC: 1.56
- Hexb log2 nFC: -0.83
- Hexb nFC: 0.56
- Hhip log2 nFC: -0.72
- Hhip nFC: 0.61
- Hif1a log2 nFC: -0.69
- Hif1a nFC: 0.62
- Hist1h2ao log2 nFC: -1.60
- Hist1h2ao nFC: 0.33
- Hist1h2ap log2 nFC: -2.04
- Hist1h2ap nFC: 0.24
- Hmgn3 log2 nFC: -0.64
- Hmgn3 nFC: 0.64
- Ier3 log2 nFC: -0.63
- Ier3 nFC: 0.65
- Igf1 log2 nFC: -1.60
- Igf1 nFC: 0.33
- Igfbp4 log2 nFC: -0.58
- Igfbp4 nFC: 0.67
- Inhba log2 nFC: -2.22
- Inhba nFC: 0.21
- Iqgap3 log2 nFC: -2.41
- Iqgap3 nFC: 0.19
- Itgax log2 nFC: -0.80
- Itgax nFC: 0.58
- Jpt1 log2 nFC: -0.68
- Jpt1 nFC: 0.63
- Kank3 log2 nFC: 0.61
- Kank3 nFC: 1.53
- Kif2c log2 nFC: -1.67
- Kif2c nFC: 0.32
- Kif11 log2 nFC: -1.74
- Kif11 nFC: 0.30
- Kif14 log2 nFC: -1.56
- Kif14 nFC: 0.34
- Kif15 log2 nFC: -1.89
- Kif15 nFC: 0.27
- Kif20a log2 nFC: -2.52
- Kif20a nFC: 0.17
- Knstrn log2 nFC: -2.52
- Knstrn nFC: 0.17
- Lama1 log2 nFC: -2.43
- Lama1 nFC: 0.19
- Lap3 log2 nFC: -0.71
- Lap3 nFC: 0.61
- Lbh log2 nFC: -0.66
- Lbh nFC: 0.63
- Lgals3 log2 nFC: -0.80
- Lgals3 nFC: 0.57
- Lipa log2 nFC: -0.78
- Lipa nFC: 0.58
- Lmnb2 log2 nFC: -0.70
- Lmnb2 nFC: 0.62
- Lockd log2 nFC: -1.59
- Lockd nFC: 0.33
- Lox log2 nFC: -0.69
- Lox nFC: 0.62
- Loxl1 log2 nFC: -0.69
- Loxl1 nFC: 0.62
- Lpl log2 nFC: -0.68
- Lpl nFC: 0.62
- Ltbp2 log2 nFC: -1.44
- Ltbp2 nFC: 0.37
- Map2 log2 nFC: -0.67
- Map2 nFC: 0.63
- Mat2a log2 nFC: 0.59
- Mat2a nFC: 1.50
- Matk log2 nFC: -1.42
- Matk nFC: 0.37
- Mcm2 log2 nFC: -0.80
- Mcm2 nFC: 0.57
- Mcm3 log2 nFC: -0.84
- Mcm3 nFC: 0.56
- Mcm6 log2 nFC: -0.76
- Mcm6 nFC: 0.59
- Melk log2 nFC: -1.65
- Melk nFC: 0.32
- Mest log2 nFC: -2.27
- Mest nFC: 0.21
- Mex3a log2 nFC: -1.69
- Mex3a nFC: 0.31
- Mgl2 log2 nFC: -0.72
- Mgl2 nFC: 0.61
- Mif log2 nFC: -0.72
- Mif nFC: 0.61
- Mir147 log2 nFC: -1.44
- Mir147 nFC: 0.37
- Mis18bp1 log2 nFC: -1.46
- Mis18bp1 nFC: 0.36
- Mki67 log2 nFC: -1.62
- Mki67 nFC: 0.33
- Mmp2 log2 nFC: -0.81
- Mmp2 nFC: 0.57
- Mmp12 log2 nFC: -2.48
- Mmp12 nFC: 0.18
- Mmp13 log2 nFC: -1.80
- Mmp13 nFC: 0.29
- Ms4a7 log2 nFC: -1.49
- Ms4a7 nFC: 0.36
- Msr1 log2 nFC: -1.44
- Msr1 nFC: 0.37
- Mybpc2 log2 nFC: -2.17
- Mybpc2 nFC: 0.22
- Nans log2 nFC: -0.72
- Nans nFC: 0.61
- Nek6 log2 nFC: -0.68
- Nek6 nFC: 0.63
- Nipal3 log2 nFC: 0.64
- Nipal3 nFC: 1.56
- Npr2 log2 nFC: 0.59
- Npr2 nFC: 1.50
- Ntrk2 log2 nFC: -1.60
- Ntrk2 nFC: 0.33
- Nup93 log2 nFC: -0.64
- Nup93 nFC: 0.64
- Nusap1 log2 nFC: -2.02
- Nusap1 nFC: 0.25
- Nwd2 log2 nFC: -1.51
- Nwd2 nFC: 0.35
- Oaf log2 nFC: -0.81
- Oaf nFC: 0.57
- Olfml2b log2 nFC: -0.82
- Olfml2b nFC: 0.57
- Ooep log2 nFC: -1.51
- Ooep nFC: 0.35
- Otud7b log2 nFC: 0.61
- Otud7b nFC: 1.53
- P3h1 log2 nFC: -0.85
- P3h1 nFC: 0.55
- P4ha3 log2 nFC: -2.15
- P4ha3 nFC: 0.23
- Pbk log2 nFC: -2.73
- Pbk nFC: 0.15
- Pclaf log2 nFC: -2.08
- Pclaf nFC: 0.24
- Pcmtd1 log2 nFC: 0.63
- Pcmtd1 nFC: 1.54
- Pdgfc log2 nFC: -1.47
- Pdgfc nFC: 0.36
- Pdzd2 log2 nFC: 0.60
- Pdzd2 nFC: 1.52
- Phactr2 log2 nFC: 0.63
- Phactr2 nFC: 1.54
- Pianp log2 nFC: -1.75
- Pianp nFC: 0.30
- Pla1a log2 nFC: -1.42
- Pla1a nFC: 0.37
- Pld4 log2 nFC: -0.66
- Pld4 nFC: 0.63
- Plk1 log2 nFC: -1.89
- Plk1 nFC: 0.27
- Plk2 log2 nFC: -0.82
- Plk2 nFC: 0.57
- Plpp3 log2 nFC: 0.65
- Plpp3 nFC: 1.57
- Plxdc2 log2 nFC: 0.61
- Plxdc2 nFC: 1.53
- Pmepa1 log2 nFC: -0.76
- Pmepa1 nFC: 0.59
- Pole2 log2 nFC: -1.50
- Pole2 nFC: 0.35
- Pole log2 nFC: -1.58
- Pole nFC: 0.34
- Por log2 nFC: 0.66
- Por nFC: 1.58
- Ppa1 log2 nFC: -0.71
- Ppa1 nFC: 0.61
- Ppp1r9a log2 nFC: 0.61
- Ppp1r9a nFC: 1.53
- Prc1 log2 nFC: -2.31
- Prc1 nFC: 0.20
- Prcp log2 nFC: -0.69
- Prcp nFC: 0.62
- Prdx1 log2 nFC: -0.62
- Prdx1 nFC: 0.65
- Prrx2 log2 nFC: -1.75
